Where “and” joins values, the source holds several entries; their conditions need not be identical. Equal entries are not always repeated. Where two headings read alike, the source gives them in different places.
How the values were obtained:
PSMA = PSMA (Homo sapiens, UniProt Q04609); details: ref 13d; cited from earlier work
[1] = test system: PSMA+ PC3 PIP and PSMA– PC3 flu tumor xenografts; test: Small animal PET or PET/CT imaging of tumor bearing mice; format: in vivo
[2] = test system: PSMA+ PC3 PIP and PSMA– PC3 flu xenografts; format: in vivo, mice; details: for PIP:blood ratio / PIP:flu ratio / PIP:kidney ratio / PIP:muscle ratio / biodistribution, PC-3 PIP tumor / biodistribution, PC-3 flu tumor / biodistribution, bladder / biodistribution, blood / biodistribution, bone / biodistribution, fat / biodistribution, heart / biodistribution, kidney / biodistribution, large intestine / biodistribution, liver / biodistribution, lung / biodistribution, muscle / biodistribution, pancreas / biodistribution, small intestine / biodistribution, spleen / biodistribution, stomach: tumor bearing mice

Chain of PSMA (Q04609 whole entry): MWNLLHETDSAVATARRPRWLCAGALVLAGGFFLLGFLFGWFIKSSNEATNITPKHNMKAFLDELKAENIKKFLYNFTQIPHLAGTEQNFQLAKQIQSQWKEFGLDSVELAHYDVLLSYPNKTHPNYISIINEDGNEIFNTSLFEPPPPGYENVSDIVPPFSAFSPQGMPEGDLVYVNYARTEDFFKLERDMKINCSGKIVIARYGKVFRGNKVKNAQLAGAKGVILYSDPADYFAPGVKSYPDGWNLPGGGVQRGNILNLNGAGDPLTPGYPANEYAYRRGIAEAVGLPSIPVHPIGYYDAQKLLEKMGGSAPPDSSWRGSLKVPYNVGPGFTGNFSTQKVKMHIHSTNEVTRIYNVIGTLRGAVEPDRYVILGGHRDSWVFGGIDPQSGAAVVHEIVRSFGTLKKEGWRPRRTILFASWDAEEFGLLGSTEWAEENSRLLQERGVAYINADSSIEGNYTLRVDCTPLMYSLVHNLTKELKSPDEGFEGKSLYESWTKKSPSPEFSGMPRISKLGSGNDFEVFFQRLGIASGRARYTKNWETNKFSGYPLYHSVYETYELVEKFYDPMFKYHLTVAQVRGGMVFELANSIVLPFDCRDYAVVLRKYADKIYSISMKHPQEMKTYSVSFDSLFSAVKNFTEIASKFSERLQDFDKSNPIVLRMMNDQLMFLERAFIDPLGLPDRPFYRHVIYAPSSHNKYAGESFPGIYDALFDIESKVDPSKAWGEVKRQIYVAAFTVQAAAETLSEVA

## O=C(O)CC[C@H](NC(=O)N[C@@H](CCCCNC(=O)c1ccc(F)cc1)C(=O)O)C(=O)O [compound 9]
PSMA
  Ki: 0.25 nM

## O=C(O)CCC(OC(=O)NC(CCCCNC(=O)c1ccc(I)cc1[18F])C(=O)O)C(=O)O (stereo not drawn) [[^18F]24, 4-iodo-2-[^18F]fluorobenzoyllysine OPA carbamate]
[1]; male SCID mice with PSMA+ PC3 PIP and PSMA– PC3 flu xenografts
  PSMA+ PC3 PIP tumor uptake on small animal PET imaging: Intense and selective radiotracer uptake
[1]; mouse, in vivo
  uptake in salivary glands on imaging: Neither [^18F]23 nor [^18F]24 demonstrated any uptake in salivary glands
[2]; 0.5 h postinjection
  PIP:blood ratio: 5.6
  PIP:flu ratio: 9.1
  PIP:kidney ratio: 0.5
  PIP:muscle ratio: 47 and 46.6
  biodistribution, PC-3 PIP tumor: 45 % ID/g and 44.7 ± 0.62 % ID/g
  biodistribution, PC-3 flu tumor: 4.91 ± 1.10 % ID/g
  biodistribution, bladder: 3.89 ± 0.40 % ID/g
  biodistribution, blood: 7.94 ± 0.99 % ID/g
  biodistribution, bone: 1.52 ± 0.19 % ID/g
  biodistribution, fat: 1.65 ± 0.67 % ID/g
  biodistribution, heart: 2.27 ± 0.32 % ID/g
  biodistribution, kidney: 94.4 ± 8.22 % ID/g
  biodistribution, large intestine: 1.83 ± 0.16 % ID/g
  biodistribution, liver: 16.6 ± 1.61 % ID/g
  biodistribution, lung: 5.13 ± 0.29 % ID/g
  biodistribution, muscle: 0.96 ± 0.21 % ID/g
  biodistribution, pancreas: 1.78 ± 0.15 % ID/g
  biodistribution, small intestine: 1.37 ± 0.06 % ID/g
  biodistribution, spleen: 14.6 ± 4.41 % ID/g
  biodistribution, stomach: 1.80 ± 0.08 % ID/g
[2]; 1 h postinjection
  PIP:blood ratio: 20 and 19.7
  PIP:flu ratio: 25.4
  PIP:kidney ratio: 0.5
  PIP:muscle ratio: 100 and 100.2
  biodistribution, PC-3 PIP tumor: 57.1 ± 19.55 % ID/g
  biodistribution, PC-3 flu tumor: 2.25 ± 1.62 % ID/g
  biodistribution, bladder: 2.19 ± 0.22 % ID/g
  biodistribution, blood: 2.90 ± 1.98 % ID/g
  biodistribution, bone: 0.78 ± 0.14 % ID/g
  biodistribution, fat: 0.88 ± 0.68 % ID/g
  biodistribution, heart: 1.23 ± 0.22 % ID/g
  biodistribution, kidney: 122 ± 21.9 % ID/g
  biodistribution, large intestine: 0.78 ± 0.13 % ID/g
  biodistribution, liver: 15.5 ± 2.00 % ID/g
  biodistribution, lung: 3.31 ± 0.41 % ID/g
  biodistribution, muscle: 0.57 ± 0.06 % ID/g
  biodistribution, pancreas: 1.23 ± 0.29 % ID/g
  biodistribution, small intestine: 1.83 ± 1.12 % ID/g
  biodistribution, spleen: 7.81 ± 4.22 % ID/g
  biodistribution, stomach: 0.99 ± 0.17 % ID/g
[2]; 2 h postinjection
  PIP:blood ratio: 66
  PIP:flu ratio: 71.1
  PIP:kidney ratio: 0.7
  PIP:muscle ratio: 250 and 250.5
  biodistribution, PC-3 PIP tumor: 85.2 ± 5.44 % ID/g
  biodistribution, PC-3 flu tumor: 1.20 ± 0.31 % ID/g
  biodistribution, bladder: 7.48 ± 0.68 % ID/g
  biodistribution, blood: 1.29 ± 0.87 % ID/g
  biodistribution, bone: 0.36 ± 0.02 % ID/g
  biodistribution, fat: 1.12 ± 0.43 % ID/g
  biodistribution, heart: 0.57 ± 0.09 % ID/g
  biodistribution, kidney: 115 ± 13.2 % ID/g
  biodistribution, large intestine: 0.55 ± 0.01 % ID/g
  biodistribution, liver: 8.99 ± 0.55 % ID/g
  biodistribution, lung: 1.91 ± 0.29 % ID/g
  biodistribution, muscle: 0.34 ± 0.07 % ID/g
  biodistribution, pancreas: 0.92 ± 0.40 % ID/g
  biodistribution, small intestine: 1.19 ± 0.61 % ID/g
  biodistribution, spleen: 6.78 ± 1.25 % ID/g
  biodistribution, stomach: 0.51 ± 0.07 % ID/g
[2]; 4 h postinjection
  PIP:blood ratio: 156 and 155.8
  PIP:flu ratio: 231.1
  PIP:kidney ratio: 1.3
  PIP:muscle ratio: 743
  biodistribution, PC-3 PIP tumor: 97 % ID/g and 96.6 ± 18.7 % ID/g
  biodistribution, PC-3 flu tumor: 0.42 ± 0.07 % ID/g
  biodistribution, bladder: 2.03 ± 1.09 % ID/g
  biodistribution, blood: 0.62 ± 0.10 % ID/g
  biodistribution, bone: 0.18 ± 0.04 % ID/g
  biodistribution, fat: 0.58 ± 0.17 % ID/g
  biodistribution, heart: 0.24 ± 0.04 % ID/g
  biodistribution, kidney: 74.4 ± 13.8 % ID/g
  biodistribution, large intestine: 0.96 ± 0.25 % ID/g
  biodistribution, liver: 2.77 ± 0.49 % ID/g
  biodistribution, lung: 0.94 ± 0.06 % ID/g
  biodistribution, muscle: 0.13 ± 0.04 % ID/g
  biodistribution, pancreas: 0.26 ± 0.06 % ID/g
  biodistribution, small intestine: 0.24 ± 0.09 % ID/g
  biodistribution, spleen: 3.49 ± 0.86 % ID/g
  biodistribution, stomach: 0.19 ± 0.03 % ID/g
[2]; at 2–4 h
  tumor/kidney ratio: approximately 1
